Experiment [1] concerns the target T1, NAD-dependent protein deacylase sirtuin-5, mitochondrial (Homo sapiens, UniProt Q9NXA8). The experiment is described as follows: Inhibition of human SIRT5 by fluorescence based analysis.
The target of experiment [2] is T1, NAD-dependent protein deacylase sirtuin-5, mitochondrial. In words: Inhibition of human SIRT5.

T1 sequence (Q9NXA8 whole entry): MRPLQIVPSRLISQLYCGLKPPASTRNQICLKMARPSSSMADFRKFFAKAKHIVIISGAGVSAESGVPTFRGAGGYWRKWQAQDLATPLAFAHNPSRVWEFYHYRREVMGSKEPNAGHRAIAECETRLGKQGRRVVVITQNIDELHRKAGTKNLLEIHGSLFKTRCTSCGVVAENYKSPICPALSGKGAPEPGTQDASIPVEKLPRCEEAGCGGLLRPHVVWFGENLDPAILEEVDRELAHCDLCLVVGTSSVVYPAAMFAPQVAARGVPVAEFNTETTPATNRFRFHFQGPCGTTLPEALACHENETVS

For the compound `CC1=NN(c2nc(-c3ccc(C)cc3)cs2)C(=O)/C1=C/c1ccc(C(=O)O)cc1`, the IC50 in experiment [1] came out at 1.28 µM. Regarding `COc1ccc(-c2csc(N3N=C(C)/C(=C\c4ccc(Cl)cc4)C3=O)n2)cc1`, 22.6 µM corresponded to half-maximal inhibition in experiment [1] (IC50).

Compound `COC(=O)c1ccc(/C=C2/C(=O)N(c3nc(-c4cccc(C(F)(F)F)c4)cs3)N=C2C)cc1` gave an IC50 in experiment [1] of 2.28 µM.

On to `CC1=NN(c2nc(-c3cccc(C)c3)cs2)C(=O)/C1=C/c1ccc(C(=O)O)cc1`, for which the IC50 in experiment [1] was determined as 4.45 µM. In the case of `CC1=NN(c2nc(-c3ccccc3F)cs2)C(=O)/C1=C/c1ccc(C#N)cc1`, in experiment [1], the IC50 stood at 13.8 µM. On to `CC1=NN(c2nc(-c3ccc(O)cc3)cs2)C(=O)/C1=C/c1ccc(C(=O)O)cc1`, for which half-maximal inhibition in experiment [1] (IC50) was put at 1.92 µM. The compound `COc1ccccc1-c1csc(N2N=C(C)/C(=C\c3ccc(C(=O)O)cc3)C2=O)n1` displayed an IC50 in experiment [1] of 5.54 µM. Still for that read-out and setting: the value for `COC(=O)c1ccc(/C=C2/C(=O)N(c3nc(-c4cccc(C)c4)cs3)N=C2C)cc1` was 20.5 µM; that for `COC(=O)c1ccc(/C=C2/C(=O)N(c3nc(-c4cccc(OC)c4)cs3)N=C2C)cc1` was 15.8 µM; that for `COC(=O)c1ccc(/C=C2/C(=O)N(c3nc(-c4ccc(O)cc4)cs3)N=C2C)cc1` was 12.8 µM. Same read-out and setting: the result for `COC(=O)c1ccc(/C=C2/C(=O)N(c3nc(-c4ccccc4F)cs3)N=C2C)cc1` reads 12.7 µM; that for `COC(=O)c1ccc(/C=C2/C(=O)N(c3nc(-c4cccc(F)c4)cs3)N=C2C)cc1`, 10.6 µM. Regarding `COc1ccc(-c2csc(N3N=C(C)/C(=C\c4ccc(C(=O)O)cc4)C3=O)n2)cc1`, in experiment [1], 1.82 µM corresponded to half-maximal inhibition (IC50).

`COC(=O)c1ccc(/C=C2/C(=O)N(c3nc(-c4ccc(Cl)cc4)cs3)N=C2C)cc1`: the IC50 in experiment [1] was determined as 2.56 µM. `CC1=NN(c2nc(-c3ccc(Br)cc3)cs2)C(=O)/C1=C/c1ccc(C(=O)O)cc1` displayed an IC50 in experiment [1] of 1.72 µM. Still for that read-out and setting: the result for `CC1=NN(c2nc(-c3ccc(Br)cc3)cs2)C(=O)/C1=C/c1ccc(Cl)cc1` reads 12.5 µM. In the case of `N=C(N)NCCC[C@@H]1NC(=O)CCC(=O)NCCCC[C@@H](C(N)=O)NC(=O)[C@H](CCCCNC(=S)NCCC(=O)O)NC1=O`, the IC50 in experiment [2] is 2200 nM. This counts as single-digit micromolar. In the case of `COC(=O)c1ccc(/C=C2/C(=O)N(c3nc(-c4ccccc4OC)cs3)N=C2C)cc1`, in experiment [1], the midpoint of inhibition, the IC50, lay at 20.6 µM. This counts as double-digit micromolar. Consider `COC(=O)c1ccc(/C=C2/C(=O)N(c3nc(-c4ccc(OC)cc4)cs3)N=C2C)cc1`, for which the IC50 in experiment [1] came out at 10.2 µM. In the case of `COC(=O)c1ccc(/C=C2/C(=O)N(c3nc(-c4ccc(C)cc4)cs3)N=C2C)cc1`, in experiment [1], 6.54 µM corresponded to half-maximal inhibition (IC50).

As to `CC1=NN(c2nc(-c3ccc(F)cc3)cs2)C(=O)/C1=C/c1ccc(Cl)cc1`, the IC50 in experiment [1] stood at 6.28 µM. `COC(=O)c1ccc(/C=C2/C(=O)N(c3nc(-c4ccc(C#N)cc4)cs3)N=C2C)cc1` registered an IC50 in experiment [1] of 5.26 µM. For the compound `CC1=NN(c2nc(-c3ccc(C(F)(F)F)cc3)cs2)C(=O)/C1=C/c1ccc(C(=O)O)cc1`, in experiment [1], the 50% inhibitory concentration (IC50) was 0.52 µM.

Take `CC1=NN(c2nc(-c3cccc(C#N)c3)cs2)C(=O)/C1=C/c1ccc(C(=O)O)cc1`: in experiment [1], half-maximal inhibition (IC50) was put at 4.16 µM. The same measure, in the same setting: the value for `COc1ccc(-c2csc(N3N=C(C)/C(=C\c4ccc(C)cc4)C3=O)n2)cc1` was 36.8 µM. As for `COC(=O)c1ccc(/C=C2/C(=O)N(c3nc(-c4ccc(C(F)(F)F)cc4)cs3)N=C2C)cc1`, half-maximal inhibition in experiment [1] (IC50) was put at 2.84 µM. For the compound `COC(=O)c1ccc(/C=C2/C(=O)N(c3nc(-c4ccc(F)cc4)cs3)N=C2C)cc1`, in experiment [1], it took 5.83 µM to reach half-maximal inhibition (IC50). This IC50 is about 2.1-fold higher than that of the compound before. In experiment [1], `COc1cccc(-c2csc(N3N=C(C)/C(=C\c4ccc(C(=O)O)cc4)C3=O)n2)c1` displayed an IC50 of 3.08 µM. Same read-out and setting: the result for `COC(=O)c1ccc(/C=C2/C(=O)N(c3nc(-c4ccc(Br)cc4)cs3)N=C2C)cc1` reads 4.36 µM; that for `CC1=NN(c2nc(-c3cccc(F)c3)cs2)C(=O)/C1=C/c1ccc(C(=O)O)cc1`, 1.86 µM; that for `CC1=NN(c2nc(-c3ccc(C#N)cc3)cs2)C(=O)/C1=C/c1ccc(C(=O)O)cc1`, 1.05 µM.

`CC1=NN(c2nc(-c3ccc(Cl)cc3)cs2)C(=O)/C1=C/c1ccc(Cl)cc1` registered a concentration for half-maximal inhibition (IC50) in experiment [1] of 7.56 µM. This IC50 lies about 7.2-fold higher than the previous one. `CC1=NN(c2nc(-c3ccc(F)cc3)cs2)C(=O)/C1=C/c1ccc(C(=O)O)cc1` came in with an IC50 in experiment [1] of 0.85 µM. Compound `COC(=O)c1ccc(/C=C2/C(=O)N(c3nc(-c4cccc(C#N)c4)cs3)N=C2C)cc1` showed an IC50 in experiment [1] of 16.5 µM. In experiment [1], `CC1=NN(c2nc(-c3ccccc3F)cs2)C(=O)/C1=C/c1ccc(C(=O)O)cc1` displayed an IC50 of 4.18 µM.

Source of the values: ChEMBL document CHEMBL5360531, “Pyrazolone derivatives as potent and selective small-molecule SIRT5 inhibitors” (Eur J Med Chem, 2023).
